Source: patent publication US20100317647A1 (priority 2009, published 2010)

Biological target: human Cat S (Homo sapiens, UniProt P25774)
Experiment: Cathepsin enzyme inhibition assay (fluorogenic peptide substrate cleavage)
Format: biochemical
Details: human Cat S 1 nM; substrate Z-Val-Val-Arg-AMC 20 μM; pH 6.5; fluorescence over 20 minutes
Method in brief: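 IC50 values derived from fluorescence increase (ex 360 nm, em 465 nm) monitored for 20 minutes after substrate addition. Enzyme held at 1 nM with 20 μM Z-Val-Val-Arg-AMC, in pH 6.5 potassium phosphate buffer containing DTT, EDTA and Triton X-100.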

Sequence of human Cat S (P25774 115-331): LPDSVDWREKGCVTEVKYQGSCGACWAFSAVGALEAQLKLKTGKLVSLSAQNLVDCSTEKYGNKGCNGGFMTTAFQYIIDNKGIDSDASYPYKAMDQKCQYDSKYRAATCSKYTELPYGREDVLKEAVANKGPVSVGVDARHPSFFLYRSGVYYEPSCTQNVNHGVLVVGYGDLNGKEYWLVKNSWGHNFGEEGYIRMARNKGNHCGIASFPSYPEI

SMILES | IC50
CCOC(=O)N1CCC(C#N)(NC(=O)[C@@H]2C[C@@H](S(=O)(=O)c3ccc(-c4cnn(C)c4)cc3C(F)(F)F)C[C@H]2OC)CC1 (racemic) [Example 237, 4-Cyano-4-({(1R,2R,4R) and (1S,2S,4S)-2-methoxy-4-[4-(1-methyl-1H-pyrazol-4-yl)-2-trifluoromethyl-benzenesulfonyl]-cyclopentanecarbonyl}-amino)-piperidine-1-carboxylic acid ethyl ester] | 2.2 nM
N#CCNC(=O)[C@@H]1C[C@H](S(=O)(=O)c2ccc(F)cc2Cl)C[C@H]1COc1ccc(F)cc1 (single isomer, unassigned) [Example 144] | 145 nM
N#CC1(NC(=O)[C@@H]2C[C@@H](S(=O)(=O)c3ccccc3)C[C@H]2C(=O)N2C[C@H]3CC[C@@H](C2)O3)CC1 [Example 17, (1R,2R,4R)-4-Benzenesulfonyl-2-((1R,5S)-8-oxa-3-aza-bicyclo[3.2.1]octane-3-carbonyl)-cyclopentanecarboxylic acid (1-cyano-cyclopropyl)-amide] | 1.1 nM
N#CCNC(=O)[C@H]1C[C@@H](S(=O)(=O)c2ccccc2Cl)C[C@@H]1O (racemic) [Example 53, (1S,2S,4R) and (1R,2R,4S)-4-(2-Chloro-benzenesulfonyl)-2-hydroxy-cyclopentanecarboxylic acid cyanomethyl-amide] | 6690 nM
CO[C@@H]1C[C@H](S(=O)(=O)c2ccc(N3CCOCC3)cc2C(F)(F)F)C[C@H]1C(=O)NC1(C#N)CC1 (racemic) [Example 176, (1R,2R,4R) and (1S,2S,4S)-2-Methoxy-4-(4-morpholin-4-yl-2-trifluoromethyl-benzenesulfonyl)-cyclopentanecarboxylic acid (1-cyano-cyclopropyl)-amide] | 1.47 nM
Cc1ccc(C(C)(C)O[C@@H]2C[C@H](S(=O)(=O)c3ccccc3Cl)C[C@H]2C(=O)NC2(C#N)CC2)cc1 (racemic) [Example 245, (1R,2R,4R) and (1S,2S,4S)-4-(2-chlorophenylsulfonyl)-N-(1-cyanocyclopropyl)-2-(2-p-tolylpropan-2-yloxy)cyclopentanecarboxamide] | 11.4 nM
CO[C@@H]1C[C@H](S(=O)(=O)c2ccc(-c3cnn(CC(=O)N(C)C)c3)cc2C(F)(F)F)C[C@H]1C(=O)NC1(C#N)CC1 (racemic) [Example 218, (1R,2R,4R) and (1S,2S,4S)-4-[4-(1-Dimethylcarbamoylmethyl-1H-pyrazol-4-yl)-2-trifluoromethyl-benzenesulfonyl]-2-methoxy-cyclopentanecarboxylic acid (1-cyano-cyclopropyl)-amide] | 0.92 nM
N#CCNC(=O)[C@@H]1C[C@@H](S(=O)(=O)c2ccc(F)cc2Cl)C[C@H]1COc1ccc(F)cc1 (single isomer, unassigned) [Example 143] | 0.523 nM
CC(C)(C)NC(=O)[C@@H]1C[C@H](S(=O)(=O)c2ccccc2)C[C@H]1C(=O)NC1(C#N)CC1 [Example 28, (1R,2R,4S)-4-Benzenesulfonyl-cyclopentane-1,2-dicarboxylic acid 1-tert-butylamide 2-[(1-cyano-cyclopropyl)-amide]] | 25.5 nM
COC[C@@H]1C[C@H](S(=O)(=O)c2ccccc2Cl)C[C@H]1C(=O)NCC#N (single isomer, unassigned) [Example 103] | 20.7 nM
N#CC1(NC(=O)[C@@H]2C[C@@H](S(=O)(=O)c3ccc(-c4cncc(Cl)n4)cc3C(F)(F)F)C[C@H]2C(=O)N2CC(F)(F)C2)CC1 [Example 123, (1R,2R,4R)-4-[4-(6-Chloro-pyrazin-2-yl)-2-trifluoromethyl-benzenesulfonyl]-2-(3,3-difluoro-azetidine-1-carbonyl)-cyclopentanecarboxylic acid (1-cyano-cyclopropyl)-amide] | 0.1 nM

More lines, now with the values ahead:

IC50 | SMILES
270 nM | N#CC1(NC(=O)[C@H]2CC[C@H](S(=O)(=O)c3ccc(N4CCN(C5CC5)CC4)cc3Cl)C2)CC1 (racemic) [Example 102, (1S,3S) and (1R,3R)-3-[2-Chloro-4-(4-cyclopropyl-piperazin-1-yl)-benzenesulfonyl]-cyclopentanecarboxylic acid (1-cyano-cyclopropyl)-amide]
0.2 nM | CC(C)O[C@@H]1C[C@H](S(=O)(=O)c2ccc(-c3cnn(C)c3)cc2C(F)(F)F)C[C@H]1C(=O)NC1(C#N)CC1 (racemic) [Example 142, (1R,2R,4R) and (1S,2S,4S)-2-Isopropoxy-4-[4-(1-methyl-1H-pyrazol-4-yl)-2-trifluoromethyl-benzenesulfonyl]-cyclopentanecarboxylic acid (1-cyano-cyclopropyl)-amide]
0.5 nM | CO[C@@H]1C[C@H](S(=O)(=O)c2ccc(-c3c(C)noc3C)cc2C(F)(F)F)C[C@H]1C(=O)NC1(C#N)CC1 (racemic) [Example 91, (1R,2R,4R) and (1S,2S,4S)-4-[4-(3,5-Dimethyl-isoxazol-4-yl)-2-trifluoromethyl-benzenesulfonyl]-2-methoxy-cyclopentanecarboxylic acid (1-cyano-cyclopropyl)-amide]
8 nM | CO[C@@H]1C[C@H](S(=O)(=O)c2ccc(OCC(F)(F)F)cc2Cl)C[C@H]1C(=O)NC1(C#N)CC1 (racemic) [Example 65, (1R,2R,4R) and (1S,2S,4S)-4-[2-Chloro-4-(2,2,2-trifluoro-ethoxy)-benzenesulfonyl]-2-methoxy-cyclopentanecarboxylic acid (1-cyano-cyclopropyl)-amide]
0.4 nM | Cc1cc(Cl)ccc1S(=O)(=O)[C@@H]1C[C@@H](C(=O)NCC#N)[C@H](C(=O)N2C[C@@H](C)O[C@@H](C)C2)C1 [Example 32, (1R,2R,4R)-4-(4-Chloro-2-methyl-benzenesulfonyl)-2-((2S,6R)-2,6-dimethyl-morpholine-4-carbonyl)-cyclopentanecarboxylic acid cyanomethyl-amide]
0.713 nM | CO[C@@H]1C[C@H](S(=O)(=O)c2ccc(-c3cnn(CC(N)=O)c3)cc2C(F)(F)F)C[C@H]1C(=O)NC1(C#N)CC1 (racemic) [Example 194, (1R,2R,4R) and (1S,2S,4S)-4-[4-(1-Carbamoylmethyl-1H-pyrazol-4-yl)-2-trifluoromethyl-benzenesulfonyl]-2-methoxy-cyclopentanecarboxylic acid (1-cyano-cyclopropyl)-amide]
7.55 nM | N#CC1(NC(=O)[C@@H]2C[C@@H](S(=O)(=O)c3ccccc3Cl)C[C@H]2OCc2ccc(Br)cc2)CC1 (racemic) [Example 154, (1R,2R,4R) and (1S,2S,4S)-2-(4-Bromo-benzyloxy)-4-(2-chloro-benzenesulfonyl)-cyclopentanecarboxylic acid (1-cyano-cyclopropyl)-amide]
0.135 nM | N#CC1(NC(=O)[C@@H]2C[C@@H](S(=O)(=O)c3ccc(-c4ccnc(Cl)c4)cc3Cl)C[C@H]2C(=O)N2CCC(F)(F)C2)CC1 [Example 199, (1R,2R,4R)-4-[2-Chloro-4-(2-chloro-pyridin-4-yl)-benzenesulfonyl]-2-(3,3-difluoro-pyrrolidine-1-carbonyl)-cyclopentanecarboxylic acid (1-cyano-cyclopropyl)-amide]
0.2 nM | Cn1cc(-c2ccc(S(=O)(=O)[C@@H]3C[C@@H](C(=O)NC4(C#N)CC4)[C@H](C(=O)N4CC(F)(F)C4)C3)c(C(F)(F)F)c2)cn1 [Example 120, (1R,2R,4R)-2-(3,3-Difluoro-azetidine-1-carbonyl)-4-[4-(1-methyl-1H-pyrazol-4-yl)-2-trifluoromethyl-benzenesulfonyl]-cyclopentanecarboxylic acid (1-cyano-cyclopropyl)-amide]
